Assay [1] relates to MOG-specific T-cells (spleen cells from MOG T-cell receptor transgenic (2D2) mice). The assay is described as follows: Proliferation assay, 3H-thymidine incorporation. Format: cell-based, mouse. To be noted: free peptide or 500 nm silica NPs, up to 8 ug/ml. The protocol: Spleens were dissected from MOG T-cell receptor transgenic mice expressing the transgenic V3.2α/Vβ11 T-cell receptor specific for MOG35-55 peptide ([…]) in the context of 1-A^b. Single cell suspensions were prepared in complete RPMI medium containing 10% heat inactivated FBS, 2 mM L-glutamine, 100 U/ml penicillin, 100 μg/ml streptomycin, 50 μM 2-mercaptoethanol and 1 mM sodium pyruvate (Sigma). Following red blood cell lysis, splenocytes were seeded in triplicate in 96-well, flat bottom microtiter plates (Nunc) at a concentration of 2.5×10^5 cells per well. Splenocytes were cultured in medium alone or in the presence of increasing doses of MOG35-55 or nanoparticles. Cells were incubated at 37° C. for 72 hr with the addition of 1 μCi/well [3H]-thymidine (Perkin Elmer) for the last 18 hr of culture. Cells were harvested onto filter mats (Perkin Elmer) and incorporated radioactive nucleic acids counted using a Top Count NXT Scintillation Counter (Packard Biosciences).

Assay [2] deals with C57Bl/6 EAE mice. The assay is described as follows: EAE induction and clinical scoring, MOG35-55-induced EAE in C57Bl/6 mice (chronic progressive model). To be noted: for Disease incidence / Mortality: fraction of total; for Cumulative score / Day disease onset / Maximum score / Score at termination: mean ± SEM. Format: in vivo, mouse.
For assay [3], the system named is C57Bl/6 EAE mice. Put plainly: Histological analysis of CNS tissue of C57Bl/6 EAE mice. Format: in vivo, mouse. Also noted: key to Axonal damage: 0 = no axonal pathology, 3 = severe axonal pathology; key to Demyelination score: 0 = no demyelination, 3 = severe demyelination. Particulars: for Axonal damage / Demyelination score / Inflammation score: mean ± SEM. The protocol: (§1) For histological analysis of CNS tissue, the brain and spinal cord were dissected from mice then fixed in 10% formalin (Sigma) for 24-48 h. Tissue was then processed and embedded in paraffin wax. Serial sections (5 μm) were cut from paraffin-embedded tissues and stained with hematoxylin and eosin, luxol fast blue and Bielschowsky silver impregnation to assess inflammation, demyelination and axonal damage, respectively. Sections were scored blind for semi-quantitative histological analysis of inflammation as follows: 0, no inflammation: 1, cellular infiltrate only in the perivascular areas and meninges; 2, mild cellular infiltrate in parenchyma: 3, moderate cellular infiltrate in parenchyma; 4, severe cellular infiltrate in parenchyma. Demyelination and axonal pathology were assessed by pale staining and scored blind as follows: 0, no demyelination/axonal pathology: 1, mild demyelination/axonal pathology; 2, moderate demyelination-axonal pathology; 3, severe demyelination/axonal pathology.

Assay [4] concerns NOD/Lt EAE mice. Put plainly: EAE induction and clinical scoring, recombinant mouse MOG-induced EAE in NOD/Lt mice (relapsing remitting model). To be noted: 200 nm silica peptide nanoparticles, NOD/Lt. In kind it is in vivo.
In assay [5] the test system is NOD/Lt EAE mice. The assay is described as follows: Histological analysis of CNS tissue of NOD/Lt EAE mice. Particulars: 200 nm silica peptide nanoparticles, mean ± SEM. Further details: key to Axonal damage: 0 = no axonal pathology, 3 = severe axonal pathology; key to Demyelination score: 0 = no demyelination, 3 = severe demyelination. Format: in vivo, mouse. The procedure: as §1

[6] abbreviates: 500 nm silica peptide nanoparticles, i.v. day -7 and -1.
Where [7] appears, read: 500 nm silica peptide nanoparticles.
[8] abbreviates: 200 nm silica peptide nanoparticles.

Entries after “also recorded” stand apart in the source; their conditions may differ. Non-standard residues stand in square brackets, D forms with d. No end group written: not given here. βF = beta phenylalanine (beta-amino acid)

With “MEVGWYRSPFSRVVHLYRNGK [MOG35-55, encephalitogenic mouse MOG peptide, free peptide, reference compound]”, in assay [1], the “T-cell proliferation (proliferative response)” value (from here on “T-cell proliferation”) is “robust proliferation response”.

In the case of “MOG44BF: 500 nm silica nanoparticles coated with MOG44βF peptide VGWYRSPβFSRVVHLYR (VGWYRSP[βF]SRVVHLYR; also: coated on 500 nm silica nanoparticles)”, the “therapeutic effect compared to MOG37-52 coated NPs (onset, disease severity)” value with C57Bl/6 EAE mice [2] (500 nm NPs) is recorded as “more significant therapeutic effect”. Also, the “daily mean clinical score compared to controls” value in the assay on C57Bl/6 EAE mice [2] (500 nm NPs, treatment prior to induction of EAE) was “significant reduction”. In addition, the Disease incidence in the assay on C57Bl/6 EAE mice [2] (setting [6]) is 2/6. Moreover, in the assay on C57Bl/6 EAE mice [2] (setting [7]), the Mortality is recorded as 0/6, the Cumulative score is reported as 5.417 ± 3.967 ^**** ∧∧∧, the Day disease onset is given as 29.17 ± 3.710^++ ^### *** ∧∧∧ and the Maximum score is 0.4167 ± 0.3270^++ ^*** ∧∧∧. Besides, in the assay with C57Bl/6 EAE mice [2] (setting [7]), the Score at termination is listed as 0.1667 ± 0.1054 # ^∧. Besides, the “CNS inflammation, demyelination and axonal damage” value with C57Bl/6 EAE mice [3] (500 nm NPs, versus bare NPs or scrambled MOG37-52 NPs) is “reduction in CNS inflammation, demyelination and axonal damage; also recorded: significantly reduced inflammation, demyelination and axonal damage”. In the assay with C57Bl/6 EAE mice [3] (setting [7]), the Axonal damage is reported as 0.5833 ± 0.2007 ∧∧∧∧, the Demyelination score is on record as 0.375 ± 0.08539^### *** ∧∧∧∧ and the Inflammation score is listed as 0.7917 ± 0.2694^### *** ∧∧∧∧. Also, the “T-cell proliferation” value in assay [1] (listed as MOG440F) is reported as “not capable of stimulating T-cell proliferation”. Further, the “T-cell proliferation” value in assay [1] (listed as MOG441F) is recorded as “did not induce a robust proliferative response”.

“ScrMOG37-52: control silica nanoparticles (500 nm or 200 nm) coated with scrambled MOG37-52 peptide RSVLVPSRWRHFYGVY [reference compound]”: in the assay on C57Bl/6 EAE mice [2] (setting [8]), the Disease incidence is listed as 8/8, the Mortality is given as 0/8, the Cumulative score is 52.50 ± 4.621 and the Day disease onset was determined as 13.38 ± 0.9051. In addition, in the assay on C57Bl/6 EAE mice [2] (setting [8]), the Maximum score worked out at 3.313 ± 0.2825 and the Score at termination amounted to 2.313 ± 0.4525. In the assay on C57Bl/6 EAE mice [2] (setting [6]), the Disease incidence is recorded as 6/6. In the assay with C57Bl/6 EAE mice [2] (setting [7]), the Mortality was 0/6, the Cumulative score amounted to 52.5 ± 2.053, the Day disease onset was 12.67 ± 0.4216 and the Maximum score was found to be 3.00 ± 0.0000. The Score at termination in the assay with C57Bl/6 EAE mice [2] (setting [7]) was 1.833 ± 0.2108. In the assay on C57Bl/6 EAE mice [3] (setting [8]), this substance gave an Axonal damage of 2.188 ± 0.2302, a Demyelination score of 2.063 ± 0.2745 and an Inflammation score of 2.688 ± 0.3889. Further, in the assay with C57Bl/6 EAE mice [3] (setting [7]), the Axonal damage was found to be 2.367 ± 0.2472, the Demyelination score was found to be 2.333 ± 0.2108 and the Inflammation score is 2.917 ± 0.2007. In the assay with NOD/Lt EAE mice [4] (fraction of total), the Disease incidence is listed as 6/6 and the Mortality is listed as 0/6. Further, in the assay with NOD/Lt EAE mice [4] (mean ± SEM), the Cumulative score amounted to 58.5 ± 2.772, the Day disease onset was found to be 13.00 ± 0.4472, the Maximum score is reported as 3.583 ± 0.3005 and the Score at termination was determined as 3.333 ± 0.3333. In the assay with NOD/Lt EAE mice [5], this substance came in with an Axonal damage of 2.583 ± 0.2007, a Demyelination score of 2.583 ± 0.2007 and an Inflammation score of 3.583 ± 0.2713. The “T-cell proliferation” value in assay [1] is reported as “not capable of stimulating T-cell proliferation”.

For the origin of these results see patent US20200246441A1, “COMPOSITIONS AND METHODS FOR AUTOIMMUNE DISEASE TREATMENT” (AMRITA VISHWA VIDYAPEETHAM, priority 2016, published 2020).
